This note sets out measurements from patent US9815831B2, “3,5-disubstituted-3H-imidazo[4,5-B]pyridine and 3,5-disubstituted-3H-[1,2,3]triazolo[4,5-B] pyridine compounds as modulators of c-Met protein kinases” (Rhizen Pharmaceuticals SA, priority 2012, dated 2017).

What is called IC50 is the concentration that gives 50% inhibition. The term inhibition denotes the change of the read-out against control, counted positive when it falls. By GI50 is commonly meant the concentration giving 50% growth inhibition.

Experiment [1] addresses T1, human recombinant Met kinase (Homo sapiens, UniProt P08581).
T1 construct: purchased Cell Signalling Technology, Beverly, Mass
In words: Colorimetric determination of c-Met kinase activity (HTScan Met Kinase Assay Kit). It counts as biochemical. The conditions noted are these: read-out: c-Met Enzyme IC50.

Experiment [2] has as its target T1, human recombinant Met kinase. Described as above. It counts as biochemical. To be noted: for inhibition: cells marked *: tested @ 300 nM, read-out: c-Met Enzyme % inhibition; for inhibition at 0.1 µM: 100 nM (cells without *), read-out: c-Met Enzyme % inhibition @ 100 nM. An excerpt: 1. MET Kinase Assay Protocol:
Colorimetric Determination of c-Met Kinase Activity
The receptor tyrosine kinase c-Met is a heterodimeric transmembrane glycoprotein involved in several cellular processes that aid in tumor progression. Phosphorylation of the tyrosine residues in the c-Met kinase domain is critical for its activity and the resulting down-stream effects. The colorimetric assay allows detection of the phosphorylated form of a biotinylated peptide upon activation of human recombinant Met kinase.
MET Kinase Assay Protocol:
c-Met Kinase activity shall be determined using an HTScan® Met Kinase Assay Kit (Cell Signalling Technology, Beverly, Mass.) with modifications. All incubations are carried out at room temperature. Briefly, 12.5 μl of a 4× reaction cocktail (DTT/Kinase buffer containing appropriate quantity of human Met kinase) is added to each well of a 96-well plate containing 12.5 μl pre-diluted compound of interest and incubated for 5 minutes. After the initial incubation, 25 μl/well of 2×ATP/biotinylated peptide is added and incubated for an additional 30 minutes. The reaction is terminated by the addition of 50 μl/well stop buffer (50 mM EDTA, pH 8.0). The reaction mixture (25 μl/well) is then transferred to a streptavidin coated plate (Perkin Elmer, Cat#4009-0010) containing 75 μl dH2O and incubated for 60 minutes. The plate is washed with 200 μl/well wash buffer (1×PBS, 0.05% Tween-20). After washing, 100 μl/well phospho-tyrosine mAb (1:1000 in wash buffer containing 1% BSA) is added and incubated for 60 minutes. After another round of washes, 100 μl/well europium labelled anti-mouse IgG (1:500 in wash buffer containing 1% BSA) is added and incubated for an additional 30 minutes. Following additional washes, 100 μl/well Delfia^(R) enhancement solution (Perkin Elmer, Cat#1244-105) is added and incubated for 45 minutes. Florescence is measured on a microplate reader (BMG Labtech., Germany) at 340 nm (excitation) and 615 nm (emission) for calculating % inhibition. Data generated can be analyzed further using Graphpad Prism (Graphpad software, San Diego Calif.) for determination of IC50.
Results: The results are as given below in Table 4A, 4B and 4C as % Inhibition or IC50 of c-Met

Experiment [3] concerns MKN-45. The experiment is described as follows: Inhibition of MKN-45 proliferation (MTT). It counts as cell-based, human. To be noted: Homo sapiens, MKN-45 proliferation; for GI50: read-out: MKN45 GI50; for inhibition at 0.1 µM: 100 nM, read-out: MKN45 % inhibition @ 100 nM. The procedure:
3. Inhibition of MKN-45 Proliferation:
Cell proliferation assays were carried out using the high Met expressing human gastric adenocarcinoma cell line, MKN-45, according to the following schedule: • Day 1: Cells were plated in 96-well plates in complete growth medium. • Day 2: Compounds at desired concentrations were added. • Day 5: Cell viability was determined using the 3-[4,5-dimethylthiazol-2-yl]-2,5-diphenyltetrazolium bromide (MTT) dye reduction test. Results: The results are as given as % Inhibition of MKN-45 proliferation at 100 nM and GI50 values in Table 4A to 4C above. 4. Inhibition of c-Met Kinase Phosphorylation in MKN-45 Cells: […]

Read-outs that look alike come from different tables or passages of the source.

T1 sequence (P08581 25-1390): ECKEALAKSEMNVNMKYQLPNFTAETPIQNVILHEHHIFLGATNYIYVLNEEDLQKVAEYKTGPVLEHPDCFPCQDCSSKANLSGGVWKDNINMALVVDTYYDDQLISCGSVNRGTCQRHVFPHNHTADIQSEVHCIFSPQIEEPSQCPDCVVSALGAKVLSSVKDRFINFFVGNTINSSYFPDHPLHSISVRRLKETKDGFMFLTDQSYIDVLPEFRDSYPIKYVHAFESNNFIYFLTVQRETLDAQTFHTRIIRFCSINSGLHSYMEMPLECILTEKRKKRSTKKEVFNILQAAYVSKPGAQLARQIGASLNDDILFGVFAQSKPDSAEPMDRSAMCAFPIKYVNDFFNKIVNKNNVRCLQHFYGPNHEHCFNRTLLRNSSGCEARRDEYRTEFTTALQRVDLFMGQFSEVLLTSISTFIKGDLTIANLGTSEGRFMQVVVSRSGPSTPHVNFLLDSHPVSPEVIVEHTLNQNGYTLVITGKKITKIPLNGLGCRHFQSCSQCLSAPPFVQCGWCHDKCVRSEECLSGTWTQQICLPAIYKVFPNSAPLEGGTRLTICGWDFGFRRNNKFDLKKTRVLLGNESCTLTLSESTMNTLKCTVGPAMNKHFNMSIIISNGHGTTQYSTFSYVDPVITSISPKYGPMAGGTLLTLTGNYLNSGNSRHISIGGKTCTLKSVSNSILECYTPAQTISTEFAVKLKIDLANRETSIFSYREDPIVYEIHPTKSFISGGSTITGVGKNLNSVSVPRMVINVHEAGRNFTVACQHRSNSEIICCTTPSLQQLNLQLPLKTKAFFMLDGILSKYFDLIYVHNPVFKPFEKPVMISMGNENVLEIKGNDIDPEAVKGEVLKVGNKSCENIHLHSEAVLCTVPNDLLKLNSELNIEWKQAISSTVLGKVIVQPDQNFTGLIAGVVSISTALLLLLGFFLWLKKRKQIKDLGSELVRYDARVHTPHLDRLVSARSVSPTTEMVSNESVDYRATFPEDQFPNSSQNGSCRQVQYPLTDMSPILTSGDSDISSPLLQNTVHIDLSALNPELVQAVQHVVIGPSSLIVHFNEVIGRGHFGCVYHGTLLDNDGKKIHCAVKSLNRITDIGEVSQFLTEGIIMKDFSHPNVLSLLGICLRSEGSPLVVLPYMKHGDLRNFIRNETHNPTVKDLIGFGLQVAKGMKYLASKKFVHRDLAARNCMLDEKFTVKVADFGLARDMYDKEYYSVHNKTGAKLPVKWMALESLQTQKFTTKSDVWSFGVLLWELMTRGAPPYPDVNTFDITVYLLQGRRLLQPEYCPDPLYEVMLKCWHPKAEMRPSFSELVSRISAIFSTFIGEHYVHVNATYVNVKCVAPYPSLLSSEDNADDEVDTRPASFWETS

As to `CON=C(C)c1ccc2nnn(Cc3cc4cccnc4cc3F)c2n1` (racemic) [Example 60, 1-(3-((7-fluoroquinolin-6-yl)methyl)-3H-[1,2,3]triazolo[4,5-b]pyridin-5-yl) ethanone O-methyl oxime], in experiment [1] (Table 4A), the IC50 lay within 0.025 to 0.05 µM. Besides, in experiment [2] (Table 4A), the inhibition is 75 to 100%. For the same compound, the GI50 in experiment [3] (MKN-45, Table 4A) lay in the range of 0.05 to 0.1 µM.

On to `C/C(=N\NC(N)=S)c1ccc2nnn(Cc3ccc4ncccc4c3)c2n1` [Example 50, 2-(1-(3-(quinolin-6-ylmethyl)-3H-[1,2,3]triazolo[4,5-b]pyridin-5-yl)ethylidene)hydrazinecarbothioamide], for which, in experiment [1] (Table 4A), the IC50 lay in the range of 0.025 to 0.05 µM. Further, the inhibition in experiment [2] (Table 4A) lay within 75 to 100%. In addition, in experiment [3] (MKN-45, Table 4A), the inhibition at 0.1 µM lay within 75 to 100% and the GI50 is 0.025 to 0.05 µM.

For `C/C(=N\NC(=O)OC(C)(C)C)c1ccc2nnn(Cc3ccc4ncccc4c3)c2n1` [Example 53, tert-butyl 2-(1-(3-(quinolin-6-ylmethyl)-3H-[1,2,3]triazolo[4,5-b]pyridin-5-yl)ethylidene)hydrazinecarboxylate], the inhibition in experiment [2] (Table 4A) was less than 25%. In addition, the inhibition at 0.1 µM in experiment [3] (MKN-45, Table 4A) was less than 25%.

In the case of `C/C(=N\NC(N)=S)c1ccc2nnn(Cc3cc4cccnc4cc3F)c2n1` [Example 57, 2-(1-(3-((7-fluoroquinolin-6-yl)methyl)-3H-[1,2,3]triazolo[4,5-b]pyridin-5-yl)ethylidene)hydrazinecarbothioamide], the concentration for half-maximal inhibition (IC50) in experiment [1] (Table 4A) fell in the range of 0.025 to 0.05 µM. Besides, the inhibition in experiment [2] (Table 4A) lay within 75 to 100%. For the same compound, in experiment [3] (MKN-45, Table 4A), the inhibition at 0.1 µM lay within 50 to 75% and the 50% growth inhibitory concentration (GI50) lay within 0.025 to 0.05 µM.

For `COC(=O)N/N=C(\C)c1ccc2nnn(Cc3ccc4ncccc4c3)c2n1` [Example 58, Methyl 2-(1-(3-(quinolin-6-ylmethyl)-3H-[1,2,3]triazolo[4,5-b]pyridin-5-yl)ethylidene)hydrazinecarboxylate], the inhibition in experiment [2] (Table 4A) was less than 25%. Also, the inhibition at 0.1 µM in experiment [3] (MKN-45, Table 4A) is 25 to 50%.

As to `CC(=NO)c1ccc2nnn(Cc3cc4cccnc4cc3F)c2n1` [Example 59, 1-(3-((7-fluoroquinolin-6-yl)methyl)-3H-[1,2,3]triazolo[4,5-b]pyridin-5-yl) ethanone oxime], the half-maximal inhibitory concentration (IC50) in experiment [1] (Table 4A) is 0.025 to 0.05 µM. For the same compound, the GI50 in experiment [3] (MKN-45, Table 4A) fell in the range of 0.025 to 0.05 µM.

Take `C/C(=N\OCCO)c1ccc2nnn(Cc3ccc4ncccc4c3)c2n1` [Example 62, 1-(3-(quinolin-6-ylmethyl)-3H-[1,2,3]triazolo[4,5-b]pyridin-5-yl)ethanone O-2-hydroxyethyl oxime]: the inhibition in experiment [2] (Table 4A) was less than 25%. Besides, in experiment [3] (MKN-45, Table 4A), the inhibition at 0.1 µM was less than 25%.

Consider `CONC(=O)c1c(F)cc(-c2ccc3ncn(Cc4ccc5ncccc5c4)c3n2)cc1F` [Example 105, 2,6-difluoro-N-methoxy-4-(3-(quinolin-6-ylmethyl)-3H-imidazo[4,5-b]pyridin-5-yl)benzamide], for which the inhibition in experiment [2] (Table 4B) was 25 to 50%. The inhibition at 0.1 µM in experiment [3] (MKN-45, Table 4B) was less than 25%.

Turning to `C/C(=N\NC(N)=O)c1ccc2ncn(Cc3ccc4ncccc4c3)c2n1` [Example 107, 2-(1-(3-(quinolin-6-ylmethyl)-3H-imidazo[4,5-b]pyridin-5-yl)ethylidene)hydrazinecarboxamide], the IC50 in experiment [1] (Table 4B) was 0.1 to 0.25 µM. In experiment [3] (MKN-45, Table 4B), the inhibition at 0.1 µM is less than 25% and the GI50 lay in the range of 0.25 to 1 µM.

As for `C/C(=N\NC(N)=S)c1ccc2ncn(Cc3ccc4ncccc4c3)c2n1` [Example 108, 2-(1-(3-(quinolin-6-ylmethyl)-3H-imidazo[4,5-b]pyridin-5-yl)ethylidene)hydrazinecarbothioamide], in experiment [2] (Table 4B), the inhibition is less than 25%. For the same compound, the inhibition at 0.1 µM in experiment [3] (MKN-45, Table 4B) is less than 25%.

For the compound `Cc1cc(-c2ccc3ncn(Cc4ccc5ncccc5c4)c3n2)ccc1C(=O)NOCCO` [Example 111, N-(2-Hydroxy-ethoxy)-2-methyl-4-(3-quinolin-6-ylmethyl-3H-imidazo[4,5-b]pyridin-5-yl)-benzamide], the inhibition at 0.1 µM in experiment [2] (Table 4B) is 75 to 100%; in experiment [3] (MKN-45, Table 4B) it was less than 25%.

Take `Cc1cc(-c2ccc3ncn(Cc4ccc5ncccc5c4)c3n2)ccc1C(=O)NOCC(C)(C)O` [Example 112, N-(2-Hydroxy-2-methyl-propoxy)-2-methyl-4-(3-quinolin-6-ylmethyl-3H-imidazo[4,5-b]pyridin-5-yl)-benzamide]: the inhibition at 0.1 µM is 75 to 100% in experiment [2] (Table 4B) and less than 25% in experiment [3] (MKN-45, Table 4B).

For the compound `NC(=O)c1c(F)cc(-c2ccc3nnn(Cc4ccc5ncccc5c4)c3n2)cc1F` [Example 1003, 2,6-difluoro-4-(3-(quinolin-6-ylmethyl)-3H-[1,2,3]triazolo[4,5-b]pyridin-5-yl)benzamide 2,2,2-trifluoroacetate], the IC50 in experiment [1] (Table 4C) was less than 0.025 µM. Further, the inhibition in experiment [2] (Table 4C) was 75 to 100%.

On to `NC(=O)c1c(F)cc(-c2ccc3nnn(Cc4cc5cccnc5cc4F)c3n2)cc1F` [Example 1007, 2,6-difluoro-4-(3-((7-fluoroquinolin-6-yl)methyl)-3H-[1,2,3]triazolo[4,5-b]pyridin-5-yl)benzamide], for which the IC50 in experiment [1] (Table 4C) was less than 0.025 µM. Moreover, in experiment [3] (MKN-45, Table 4C), the inhibition at 0.1 µM is 75 to 100% and the GI50 is less than 0.025 µM.

In the case of `CCNC(=O)c1c(F)cc(-c2ccc3ncn(Cc4ccc5ncccc5c4)c3n2)cc1F` [Example 1016, N-ethyl-2,6-difluoro-4-(3-(quinolin-6-ylmethyl)-3H-imidazo[4,5-b]pyridin-5-yl)benzamide], in experiment [2] (Table 4C), the inhibition lay within 25 to 50%. The inhibition at 0.1 µM in experiment [3] (MKN-45, Table 4C) was less than 25%.

Regarding `CNC(=O)c1ccc(-c2ccc3ncn(Cc4ccc5ncccc5c4)c3n2)cc1Cl` [Example 1017, 2-chloro-N-methyl-4-(3-(quinolin-6-ylmethyl)-3H-imidazo[4,5-b]pyridin-5-yl)benzamide], the inhibition in experiment [2] (Table 4C) is 25 to 50%. Further, the inhibition at 0.1 µM in experiment [3] (MKN-45, Table 4C) was less than 25%.

`Cc1cc(-c2ccc3ncn(Cc4ccc5ncccc5c4)c3n2)ccc1C(N)=O` [Example 1018, 2-methyl-4-(3-(quinolin-6-ylmethyl)-3H-imidazo[4,5-b]pyridin-5-yl) benzamide]: the inhibition in experiment [2] (Table 4C) fell in the range of 50 to 75%. For the same compound, in experiment [3] (MKN-45, Table 4C), the inhibition at 0.1 µM was in the range of 25 to 50%.

For the compound `Cc1nc2ccc(-c3ccc(C(N)=O)c(Cl)c3)nc2n1Cc1ccc2ncccc2c1` [Example 1020, 2-chloro-4-(2-methyl-3-(quinolin-6-ylmethyl)-3H-imidazo[4,5-b]pyridin-5-yl)benzamide], in experiment [2] (Table 4C), the inhibition was less than 25%. Moreover, in experiment [3] (MKN-45, Table 4C), the inhibition at 0.1 µM is 50 to 75%.

Take `CC(c1ccc2ncccc2c1)n1cnc2ccc(-c3ccc(C(N)=O)c(Cl)c3)nc21` (centres unmarked) [Example 1021, 2-chloro-4-(3-(1-(quinolin-6-yl)ethyl)-3H-imidazo[4,5-b]pyridin-5-yl)benzamide]: in experiment [2] (Table 4C), the inhibition is less than 25%. The inhibition at 0.1 µM in experiment [3] (MKN-45, Table 4C) is 25 to 50%.

As for `NC(=O)c1ccc(-c2ccc3ncn(Cc4cc5cccnc5cc4F)c3n2)cc1Cl` [Example 1022, 2-chloro-4-(3-((7-fluoroquinolin-6-yl)methyl)-3H-imidazo[4,5-b]pyridin-5-yl)benzamide], the IC50 in experiment [1] (Table 4C) is less than 0.025 µM. Further, in experiment [3] (MKN-45, Table 4C), the inhibition at 0.1 µM lay within 50 to 75% and the GI50 lay in the range of 0.05 to 0.1 µM.

Take `NC(=O)c1ccc(-c2ccc3ncn(Cc4c(F)cc5ncccc5c4F)c3n2)cc1C(F)(F)F` [Example 1028, 4-[3-(5,7-Difluoro-quinolin-6-ylmethyl)-3H-imidazo[4,5-b]pyridin-5-yl]-2-trifluoromethyl-benzamide]: the inhibition at 0.1 µM in experiment [2] (Table 4C) fell in the range of 75 to 100%; in experiment [3] (MKN-45, Table 4C) it was 75 to 100%.
